Measured values from patent publication US10766914B2, “DNA alkylating agents” (OBI PHARMA, INC., priority 2015, dated 2020).

What was measured:
[1] = Nu-Foxn1nu NU/NU, mouse, in vivo, ip, 20 mg/kg
Procedure: The pharmacokinetics of TH2870 were determined in Mouse/Nu-Foxn 1^nu NU/NU mice with A549 (non small cell lung), A375 (melanoma) and 786-O (renal cell) human tumor xenograft models following a single intraperitoneal dose of 20 mg/kg.

LIXC-004 = test: TH2870 sensitivity in liver cancer cells; format: cell-based, human; conditions: AKR1C3 expression +++
JHH-7 = test: TH2870 sensitivity in liver cancer cells; format: cell-based, human
LIXC-006 = test: TH2870 sensitivity in liver cancer cells; format: cell-based, human; conditions: AKR1C3 expression +++
MDA-Pca-2b = test: TH2870 sensitivity in prostate cancer cell lines; format: cell-based; conditions: Homo sapiens
NCI-H660 = test: TH2870 sensitivity in prostate cancer cell lines; format: cell-based; conditions: Homo sapiens
[2] = Example 4-B body weight change, A549 xenograft study; format: in vivo, female nude mice (nu/nu); conditions: 20 mg/kg ip QD × 5/wk × 2 wks
Procedure: (§1) Cells were mixed with Matrigel (50% with exception for 30% in the H460) and 0.2 ml per mouse were subcutaneously implanted to the flank area of the animals. When tumor size reached 100-150 250 mm3, mice were randomized into experimental or vehicle groups with 10 mice/group and treatment was started (Day 1). The tested compounds were formulated in 5% DMSO in D5W. The regimens employed in the examples include IP, QD×5/wk (5 days on, 2 days off) as one cycle, for a total of 2 cycles; IP, once; IP, weekly for total 3 weeks; and IV, weekly for 3 weeks. Tumor growth and body weight were measured twice a week. Tumor volume was calculated as (length×width2)/2. Drug efficacy was assessed as Tumor Growth Inhibition (TGI) and Tumor Growth Delay (TGD). TGI was defined as (1−ΔT/ΔC)×100, where ΔT/ΔC presented the ratio of the change in mean (or median, if variation within the group was relatively large) tumor volume of the treated group and of the control group. TGD was calculated as the extra days for the treated tumor to reach 500 mm3 or 1000 mm3 as compared to the control group. Animals were culled when individual tumor size reached over 2000 mm3 or mean tumor volume exceeded 1000 mm3 in the group. Data are expressed as the mean±SEM. One-way analysis of variance with Dunnett post comparison test (GraphPad Prism 4) or two-tailed student's t-test were used for analysis. A P level <0.05 was considered statistically significant.
Antitumor effects of compounds provided herein were determined on A 549 non-small cell lung xenograft model in comparison with a chemotherapy agent, thiotepa. The dosing was as follows. Daily IP dosing: 5 doses then 2 days off then 5 more doses starting at 110 mm^3 tumors on day 1 (10 animals per group average tumor volume). The antitumor effects and the safety of administration are graphically illustrated below.

SNU-182 = test: TH2870 sensitivity in liver cancer cells; format: cell-based, human; conditions: AKR1C3 expression /
LIXC-012 = test: TH2870 sensitivity in liver cancer cells; format: cell-based, human; conditions: AKR1C3 expression ++++
[3] = system: A 549 non-small cell lung xenograft; test: Example 4-B antitumor efficacy, ectopic A549 NSCLC xenograft model; format: in vivo, female nude mice (nu/nu); conditions: 20 mg/kg ip QD × 5/wk × 2 wks
Text: (§2) Specific pathogen-free homozygous female nude mice (nu/nu, Charles River Laboratories) were used. Mice were given food and water ad libitum and housed in microisolator cages. Four to six week old animals were identified by microchips (Locus Technology, Manchester, Md., USA) at the time of the experiments. All animal studies were approved by the Institutional Animal Care and Use Committee at Threshold Pharmaceuticals, Inc.
(§3) All cell lines were from the American Type Culture Collection (ATCC, Rockville, Md., USA).
as §1
The dosing was as follows. Daily IP dosing: 5 doses then 2 days off then 5 more doses starting at 110 mm^3 tumors on day 1 (10 animals per group average tumor volume).
Doses were selected by first doing a toxicity test in CD1 mice as described above. The compounds were tested against Thio-tepa.

LIXC-086 = test: TH2870 sensitivity in liver cancer cells; format: cell-based, human; conditions: AKR1C3 expression ++++
H460 NSCLC xenograft = test: Example 4-I antitumor efficacy, ectopic H460 NSCLC xenograft model; format: in vivo, female nude mice (nu/nu); conditions: iv, Q7D × 3; for TGD500, Days (vs. vehicle) / TGD1000, Days (vs. vehicle): H460; for TGI: H460, 250 mm3 tumors on day 1
Text: as §2, §3, §1
The compound TH-2870 was tested in a H460 model. The compound was dosed follows. 1.5, 5 or 15 mg/kg, IV, weekly for 3 weeks at 250 mm^3 tumors on day 1 (10 animals per group average tumor volume), comparing with docetaxel. The antitumor effects and the safety of administration are graphically illustrated below.

SNU-423 = test: TH2870 sensitivity in liver cancer cells; format: cell-based, human; conditions: AKR1C3 expression +
HuCCT1 = test: TH2870 sensitivity in liver cancer cells; format: cell-based, human
PLC/PRF/5 = test: TH2870 sensitivity in liver cancer cells; format: cell-based, human; conditions: AKR1C3 expression +++
SNU-398 = test: TH2870 sensitivity in liver cancer cells; format: cell-based, human; conditions: AKR1C3 expression /
PC-3 = test: TH2870 sensitivity in prostate cancer cell lines; format: cell-based; conditions: Homo sapiens
[4] = Homo sapiens, read-out: RelIC50

## CC(OP(=O)(N1CC1)N1CC1)c1ccc([N+](=O)[O-])c(Oc2cccc(C(=O)N(C)C)c2)c1 (centres unmarked) [Compound 2870]
[1]
  activation of TH2870 in liver (TH2660 relative to TH2870): ~13 fold
  activation of TH2870 in tumor (TH2660 relative to TH2870): ~148 fold
LIXC-004
  Max Inhibition %: 83.6%
LIXC-004; [4]
  IC50: 31.3 nM
JHH-7; AKR1C3 expression +++
  Max Inhibition %: 69.8%
JHH-7; Homo sapiens, JHH7, AKR1C3 expression +++, read-out: RelIC50
  IC50: 107 nM
LIXC-006
  Max Inhibition %: 71.7%
LIXC-006; [4]
  IC50: 116 nM
MDA-Pca-2b
  IC50: > 300 nM
NCI-H660
  IC50: > 300 nM
[2]
  Max. BW loss %: 1.6%
SNU-182
  Max Inhibition %: 19.4%
SNU-182; [4]
  IC50: > 1000 nM
LIXC-012
  Max Inhibition %: 87.1%
[3]
  TGD 500: >72 days
  TGI: 102.3%
LIXC-086
  Max Inhibition %: 92.8%
LIXC-086; [4]
  IC50: 41 nM
H460 NSCLC xenograft; 1.5 mg/kg
  TGD500, Days (vs. vehicle): 18 days
  TGD1000, Days (vs. vehicle): 18 days
  TGI: 100.0%
H460 NSCLC xenograft; 5 mg/kg
  TGD500, Days (vs. vehicle): 36 days
  TGD1000, Days (vs. vehicle): 38 days
  TGI: 121.3%
H460 NSCLC xenograft; 15 mg/kg
  TGD500, Days (vs. vehicle): 49 days
  TGD1000, Days (vs. vehicle): 50 days
  TGI: 121.6%
SNU-423
  Max Inhibition %: 43.3%
SNU-423; [4]
  IC50: > 1000 nM
HuCCT1; AKR1C3 expression +
  Max Inhibition %: 66.7%
HuCCT1; Homo sapiens, HuCCT-1, AKR1C3 expression +, read-out: RelIC50
  IC50: 125 nM
PLC/PRF/5
  Max Inhibition %: 53.3%
SNU-398
  Max Inhibition %: 15.3%
SNU-398; [4]
  IC50: > 1000 nM
PC-3
  IC50: 161 nM
